Assays:
[1] = tested on: guinea pig experimental bronchial asthma models; assay: Experimental bronchial asthma model (ovalbumin inhalation): airway resistance and asthmatic death;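 as to all read-outs here: female Std:Hartley guinea pigs sensitized by inhaling nebulized ovalbumin once daily for 8 consecutive days, 8 to 11 animals per group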; conditions: test compounds 15 mg/kg s.c. (Compound No. 114: 30 mg/kg), prednisolone 10 mg/kg orally; for % Survival: asthmatic death within several minutes after elicitation, water for injection 54.5, 0.5% methyl cellulose 66.7; for % Amelioration in Airway Resistance, 1 Hour after Elicitation / % Amelioration in Airway Resistance, 6 Hours after Elicitation / % Amelioration in Airway Resistance, Immediately after Elicitation: 24 and 2 hours prior to elicitation, vs solvent control
Procedure: Guinea pigs (female, Std:Hartley, 3 weeks old, 200 to 250 g) were individually housed in a plastic chamber (width, 200 mm; depth, 300 mm; height, 167 mm). Aqueous ovalbumin (10 mg/mL) was administered to the guinea pigs once a day for sensitization by 10 min. inhalation with a nebulizer (5B, Nippon Shoji K.K.: flow rate, 6 L/min.) at a dose of 10 mg/mL during 8 cosecutive days. On Day 7 after the final sensitization, the guinea pigs were housed in a plastic chamber and inhaled using a nebulizer with a solution of ovalbumin (10 mg/mL) in physiological saline for 1 min. for elicitation (Matsumoto, T., et al., The Journal of Pharmacology and Experimental Therapeutics, 269: 1236-1244, 1994). The number of animals employed in the experiment was set to the extent there are at least 6 as individuals escaping asthmatic death. A solution of a test compound (Compound No. 130, 15 mg/kg) in water for injection was administered subcutaneously twice, i.e., 24 hours and 2 hours prior to elicitation. Similarly, the solvent alone was also administered to a negative control group. A suspension of prednisolone (10 mg/kg) in 0.5% aqueous methyl cellulose was administered orally twice, i.e., 24 hours and 2 hours prior to elicitation. Similarly, the solvent alone was also administered to another control group.
The evaluation for efficacies was conducted in terms of airway resistance. For this purpose, an apparatus dedicated to the measurement of airway resistance (K.K. Medical Agent) was employed. Measurement includes setting a guinea pig in a test chamber under a not-anesthetized condition, applying sinusoidal pressure waves of 30 Hz components to a part below the neck of the animal from the back side of the chamber, measuring respiratory waves of 30 Hz components leaking through the mouth (volume of 30 Hz air flow passing through the respiratory tract) in front of the neck, and calculating airway resistance mechanically. Measurement was carried out immediately prior to the first drug treatment (24 hours before elicitation), just prior to elicitation, 10 minutes, 1, 2, 4, 6, and 8 hours post-elicitation.
It was visually observed by a person carrying out said test in terms, of the appearance of cyanosis or suffocative death (asthmatic death) due to respiratory obstruction.
Guinea pigs were sensitized with ovalbumin and asthma was induced on Day 7 after final sensitization in the same manner as in Example 20. The number of animals employed in the experiment was set to the extent there are at least 6 as individuals escaping asthmatic death (8 to 11 animals/group). In the same manner as in Example 20, the animals were measured for airway resistance mechanically and each percent change (%) in airway resistance was calculated (each value just prior to elicitation was set as 100%). Each percent amelioration in airway resistance was calculated from the percent changes in airway resistance according to the following formula: Amelioration in Airway Resistance (%) = 1 -[((Percent Change in Airway Resistance after Drug-Administration) - (Value just prior to Challenge (100)))/((Percent Change in Airway Resistance after Solvent-Administration) - (Value just prior to Challenge (100)))]× 100 [formula]

[2] = tested on: mouse experimental atopic dermatitis models; assay: Auricle edema in experimental atopic dermatitis model (anti-DNP IgE sensitization, DNFB elicitation); format: in vivo, Balb/c mice; conditions: test compounds 60 mg/kg s.c., prednisolone 10 mg/kg i.p.; for % Inhibition IPR: auricle edema 1 hour post-elicitation; for % Inhibition IPR / % Inhibition LPR: once a day, 24 & 2 hours prior to DNFB-elicitation, vs untreated group; for % Inhibition LPR: auricle edema Day 1 post-elicitation; for % Inhibition vLPR: auricle edema Day 7 post-elicitation
Procedure: Intravenous injection of an anti-2,4-dinitrophenol (DNP) antibody (anti-DNP Ab, monoclonal IgE Ab; its antibody titer was 1 : 512 to 1 : 1024 by a rat heterologous passive cutaneous anaphylaxis reaction using a Wister rat) into a tail vein of female Balb/c mice (7-week old, body weight: 17 to 20 g, purchased from JAPAN SLC, Inc.) at a dose of […] per animal raised passive sensitization. Twenty four hours post-sensitization, 0.1% 2,4-dinitrofluorobenzene (DNFB; Nacalai Tesque, Inc.) in ethanol was painted onto both sides of a pair of mouse auricles at a dose of 10µL per each side for elicitation.
Fresh unsensitized mice were painted with 0.1% DNFB in ethanol onto their ear in the same manner as aforementioned and served as a control group. Not only immediately prior to elicitation but also 1 hour, 5 hours, daily between Days 1 and 14, and on Day 16 post-elicitation, ear thickness was measured using a dial thickness gauge (Peacock Co.). Each degree of auricle edemas was calculated: Auricular Edema (µm)=(Ear Thickness Post-Elicitation, µm) - (Ear Thickness immediately prior to Elicitation, µm) [formula]
Balb/c mice were passively sensitized with anti-DNP IgE Ab in the same manner as in Example 1. Twenty four hours later, 0.1% DNFB in ethanol was painted onto both sides of a pair of mouse auricles at a dose of 10 µL per each side for elicitation.
Immediately prior to elicitation, 1 hour and on Day 1 post-elicitation, auricle thickness was measured in the same manner as in Example 1. Each therapeutic efficacy is recorded as a percent inhibition wherein the "auricle edema (untreated group)" is used as a control. Auricle Edema Inhibition (%) = [ 1 -(Auricle Edema (Treated Group))/(Auricle Edema (Untreated Group))] × 100 (%) [formula]
Immediately prior to elicitation, and on Day 7 post-elicitation, auricle thickness was similarly measured. Each therapeutic efficacy is recorded as a percent inhibition wherein the auricle edema in the untreated group is used as a control.
Immediately prior to elicitation, and on Day 7 post-elicitation, auricle thickness was similarly measured. Each therapeutic efficacy is recorded as a percent inhibition wherein the auricle edema (untreated group) is used as a control.
Immediately prior to elicitation, at 1 and 4 hours and on Days 1, 3 and 7 post-elicitation, auricle thickness was similarly measured. From each auricle edema (µm) based on the auricle thickness immediately prior to elicitation, especially a prophylactically therapeutic efficacy of the test compound was evaluated.
Immediately prior to elicitation, at 0.5, 1 and 4 hours and on Days 1, 3 and 7 post-elicitation, auricle thickness was similarly measured. Each amount of auricle edemas was calculated (average± standard deviation).

Body weight gain in mice = conditions: test compounds 60 mg/kg s.c., prednisolone 10 mg/kg i.p., once a day for 6 days (Days 0-5), average ± standard deviation; for Body Weight Gain, Observation Day 5: non-administered 0.50± 0.23; for Body Weight Gain, Observation Day 7: non-administered 0.80± 0.48; for Body Weight Gain, Observation Day 10: non-administered 1.07± 0.58
Procedure: Accordingly, for assessing the side-effect each of the following test compounds an action on body weight gains was examined.
Next the mice were measured for their body weight. Each body weight gain was calculated on Days 5, 7 and 10 post-administration based on the body weight just prior to administration.

[3] = daily from 3 to 6 days after DNFB-elicitation
[4] = daily from 1 day prior to through 5 days after DNFB-elicitation

SMILES	% Survival [1] [%]	% Amelioration in Airway Resistance, 1 Hour after Elicitation [1] [%]	% Amelioration in Airway Resistance, 6 Hours after Elicitation [1] [%]	% Amelioration in Airway Resistance, Immediately after Elicitation [1] [%]	% Inhibition IPR [2] [%]	% Inhibition LPR [2] [%]	% Inhibition vLPR [2, 3] [%]	Body Weight Gain, Observation Day 5 (Body weight gain in mice)	Body Weight Gain, Observation Day 7 (Body weight gain in mice)	Body Weight Gain, Observation Day 10 (Body weight gain in mice)	% Inhibition vLPR [2, 4] [%]
CNC(=O)[C@H](CCCCN)NC(=O)[C@H](CC(C)C)C(CCCc1ccc(C(=O)OC)cc1)C(=O)NO (single isomer, unassigned) [Compound No. 65, N^a-[4-(Hydroxyamino)-2(R)-isobutyl-3(R or S)-[3-(p-methoxycarbonylphenyl)propyl]succinyl]-L-lysine N-methylamide · 1 acetate]	87.5	22.3	63.6	29.9							
CNC(=O)[C@H](Cc1ccc(CN)cc1)NC(=O)[C@H](CC(C)C)[C@@H](CCCc1ccccc1)C(=O)NO.Cl [Compound No. 128, N-[4-(N-Hydroxyamino)-2(R)-isobutyl-3(R)-(3-phenylpropyl)succinyl)-L-4'-aminomethylphenylalanine-N-methylamide · 1 hydrochloride]	72.7	53.2	49.4								
CC(=O)O.CNC(=O)[C@H](Cc1ccc(NC(=N)N)cc1)NC(=O)[C@@H](CC(=O)NO)CC(C)C [Compound No. 121, N-[4-(N-Hydroxyamino)-2(R)-isobutylsuccinyl]-L-4'-guanidophenylalanine-N-methylamide 1 acetate]	88.9	56.4	102.2								
CNC(=O)C(CCCCNC(C)=N)NC(=O)C(CC(C)C)C(C)C(=O)NO (racemic) [Compound No. 22, N^a-[4-(Hydroxyamino)-2(R)-isobutyl-3(RS)-methylsuccinyl]-N^e-acetimidoyl-L-lysine N-methylamide · 1 acetate]					52.7	33.1	49.5	0.97± 0.31	0.80± 0.39	1.20± 0.53	
CNC(=O)C(CCCN)NC(=O)C(CC(C)C)C(CCCc1ccc(NC(=N)N)cc1)C(=O)NO (racemic) [Compound No. 46, N^a-[4-(Hydroxyamino)-2(R)-isobutyl-3(RS)-[3-(4'-guanidinophenyl)propyl]succinyl]-L-ornithine-N-methylamide · 2 acetate]						46.7		1.08± 0.22	1.57± 0.33	1.33± 0.32	27.5
CNC(=O)C(CCCNC(=N)N)NC(=O)C(CC(C)C)C(Cc1ccc(CN2C(=O)c3ccccc3C2=O)cc1)C(=O)NO (single isomer, unassigned) [Compound No. 51, N^a-[4-(Hydroxyamino)-2(R)-isobutyl-3(R or S)-(p-phthalimidomethylbenzyl)succinyl]-L-arginine N-methylamide · 1 acetate]	70.0	59.1	56.3	30.1							
CC(=N)NCc1ccc(CC(NC(=O)C(CC(C)C)C(CC(C)C)C(=O)NO)C(=O)NCCO)cc1 (racemic) [Compound No. 91, N^a-[4-(Hydroxyamino)-2(R),3(RS)-diisobutylsuccinyl]-4'-acetimidoyliminomethyl-L-phenylalanine N-(2-hydroxyethyl)amide · 2 acetate]						43.0		1.28± 0.37	1.55± 0.48	1.30± 0.54	
CC(=O)O.CNC(=O)[C@H](Cc1ccc(CNC(C)=N)cc1)NC(=O)[C@H](CC(C)C)[C@H](CCCc1ccccc1)C(=O)NO [Compound No. 126, N-[4-(N-Hydroxyamino)-2(R)-isobutyl-3(S)-(3-phenyltrimethylene)succinyl]-L-4'-acetimidoyliminomethylenephenyl alanine-N-methylamide · 1 acetate]					38.2	39.2	44.7				
CC(=O)O.CC(C)C[C@H](C(=O)NO)[C@@H](CC(C)C)C(=O)N[C@@H](Cc1ccc(CN)cc1)C(=O)NCCC(=O)O [Compound No. 127, N-[4-(N-Hydroxyamino)-2(R),3(S)-diisobutylsuccinyl]-L-4'-aminomethylphenylalaninyl-β-alanine · 1 acetate]	70.0	20.8	55.2	21.9	47.8	41.1	20.6				46.7
CC(=O)O.CNC(=O)[C@H](Cc1ccc(CNC(C)=N)cc1)NC(=O)[C@H](CC(C)C)[C@H](O)C(=O)NO [Compound No. 43, N^a-[4-(Hydroxyamino)-2(R)-isobutyl-3(S)-hydroxysuccinyl]-4'-acetimidoyliminomethyl-L-phenylalanine N-methylamide · 1 acetate]					38.2	39.2	43.6				
CC(=N)N=Cc1ccc(C[C@H](NC(=O)[C@H](CC(C)C)C(CC(C)C)C(=O)NO)C(=O)NCCN(C)C)cc1.CC(=O)O.CC(=O)O (single isomer, unassigned) [Compound No. 90, N^a-[4-(Hydroxyamino)-2(R),3(R or S)-diisobutylsuccinyl]-4'-acetimidoyliminomethyl-L-phenylalanine N-(2-N',N'-dimethylaminoethyl)amide · 2 acetate]											20.6
